For data set [1], the system named is human Ether-a-go-go Related Gene (hERG) channel.
In data set [2] the target is T1, AmiC (Pseudomonas aeruginosa, UniProt P27017). Description: biochemical.
Description: Briefly, AmiC protein was labeled using the RED‐NHS labeling kit (NanoTemper Technologies). The labeling reaction was performed according to the manufacturer's instructions in the supplied labeling buffer using a 20 × 10^−6 M protein concentration and a molar dye:protein ratio ≈2:1, at RT for 30 min. […] The label:protein ratio was determined using photometry at 650 and 280 nm. Typically, a ratio of 0.8 was achieved.
For thermophoresis, each ligand dilution was mixed with one volume of AmiC, which led to a final concentration of AmiC of 50 × 10^−9 M and final ligand concentrations at half of the ranges above. Instrument parameters were adjusted with 50% light‐emitting diode power and 20% MST power. Data of three independently pipetted measurements were analyzed (NT.Analysis software version 1.5.41, NanoTemper Technologies) using the signal from Thermophoresis + T‐Jump.
Data set [3] has as its system P. aeruginosa PA14 established biofilm. In words: Dispersion of 24 h established biofilm in flow cell, CLSM/COMSTAT. The data set is classed as cell-based, Pseudomonas aeruginosa. The conditions noted are these: mean ± SEM; for biofilm biovolumes reduction: 37 °C. The protocol:
For biofilm dispersion experiments, overnight cultures of P. aeruginosa strains were performed in LB medium at 37 °C for 18 h with shaking (180 rpm). Bacterial cells were then washed and adjusted to OD580 = 0.1 in 0.9% w/v NaCl. The bacterial suspensions were then used to form a biofilm for 24 h under hydrodynamic conditions at 37 °C. Briefly, each channel of the flow cell was inoculated with 300 µL of bacterial suspension. A 2 h attachment step was performed without flow. After 2 h, each channel was then pumped with a 2.5 mL h^–1 flow rate of LB medium during 24 h. Next, the 24 h old biofilm of P. aeruginosa was exposed for 2 h (or 30 min) to 300 µL of studied compounds (i.e., peptides, antibiotics, or a combination of peptide + antibiotics) or 300 µL of ultra‐pure distilled water (control condition), added to each channel of the flow cell and without flow. Prior to image acquisition, biofilm cultures were then rinsed with LB medium using 2.5 mL h^–1 flow rate for 15 min. Finally, biofilm cells were stained and then observed by CLSM.
The CLSM observations of biofilms were performed using a Zeiss LSM710 microscope (Carl Zeiss Microscopy, Oberkochen, Germany) using a x40 oil immersion objective. Bacteria into the biofilm were stained with 5 × 10^−6 M of SYTO9 green‐fluorescent dye (Invitrogen, Carlsbad, CA). Biofilm matrix components were stained using fluorescent dyes. To assess the eDNA relative abundance, 1 × 10^−6 M of DDAO (Invitrogen, Carlsbad, CA) was used. The polysaccharides β1‐3 and β1‐4 were labeled with CalcoFluor White M2R at 200 µg mL^−1 (Sigma‐Aldrich, USA). eDNA and polysaccharides values were normalized to biofilms’ biomass. The Live/Dead BacLight kit (Invitrogen, Carlsbad, CA) was used to examine bacterial viability in biofilms according to manufacturer instructions. Images were taken every micrometer throughout the whole biofilm depth. For visualization and processing of 3D image, the Zen 2.1 SP1 software (Carl Zeiss Microscopy, Oberkochen, Germany) was used. Quantitative analyses of images stacks were performed using the COMSTAT software (http://www.imageanalysis.dk/).^[ [77] ^] At least three image stacks from at least three independent experiments were used for each analysis.

The target in data set [4] is T1, AmiC. Also on record: made in house. The following applies: cited from earlier work. An excerpt:
[…]; see 2.0 ± 0.3 × 10^−6 M for hCNP^[ [44] ^]). This is consistent with the van der Waals and hydrog ...

Read-outs that look alike come from different tables or passages of the source.

T1 sequence (P27017 whole entry): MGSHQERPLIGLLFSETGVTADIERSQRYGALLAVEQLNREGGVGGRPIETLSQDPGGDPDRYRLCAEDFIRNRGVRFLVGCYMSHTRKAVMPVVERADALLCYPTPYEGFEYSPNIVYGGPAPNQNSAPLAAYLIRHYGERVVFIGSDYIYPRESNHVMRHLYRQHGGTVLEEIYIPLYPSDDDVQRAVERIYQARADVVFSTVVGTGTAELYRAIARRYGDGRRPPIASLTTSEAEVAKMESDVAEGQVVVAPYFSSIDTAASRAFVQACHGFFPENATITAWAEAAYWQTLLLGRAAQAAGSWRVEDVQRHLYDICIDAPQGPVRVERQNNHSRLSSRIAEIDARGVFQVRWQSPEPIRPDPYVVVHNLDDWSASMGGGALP

As to `CC[C@H](C)[C@@H]1NC(=O)[C@H](CCCNC(=N)N)NC(=O)[C@H](CC(=O)O)NC(=O)[C@H](CCSC)NC(=O)[C@H](CCCNC(=N)N)NC(=O)CNC(=O)CNC(=O)[C@H](Cc2ccccc2)NC(=O)[C@@H](NC(=O)[C@H](CO)NC(=O)[C@H](CO)NC(=O)[C@H](CCCNC(=N)N)NC(=O)[C@H](CCCNC(=N)N)NC(=O)[C@H](CC(C)C)NC(=O)[C@@H](N)CO)CSSC[C@@H](C(=O)N[C@@H](CC(N)=O)C(=O)N[C@@H](CO)C(=O)N[C@@H](Cc2ccccc2)C(=O)N[C@@H](CCCNC(=N)N)C(=O)N[C@@H](Cc2ccc(O)cc2)C(=O)O)NC(=O)CNC(=O)[C@H](CC(C)C)NC(=O)CNC(=O)[C@H](CO)NC(=O)[C@H](CCC(N)=O)NC(=O)[C@H](C)NC(=O)CNC1=O` [hANP, human Atrial Natriuretic Peptide], in data set [1], the “hERG cardiac channel conductance” value is given as “did not modify”. The Kd at AmiC [2] was 5 ± 3 µM.

With `C[C@@H](O)[C@H]1C(=O)N2C(C(=O)O)=C(SCCN=CN)C[C@H]12` [imipenem], the biofilm reduction in data set [3] (imipenem 0.5 µg mL^−1, 2 h, n = 5) worked out at 69.8 ± 3.0%.

As for `NC[C@H]1O[C@H](O[C@H]2[C@H](O)[C@@H](O[C@H]3O[C@H](CO)[C@@H](O)[C@H](N)[C@H]3O)[C@H](N)C[C@@H]2N)[C@H](N)C[C@@H]1O` [tobramycin], the biofilm biovolumes reduction is reported as 79.0 ± 4.0% in data set [3] (tobramycin 10 µg mL^−1, 2 h, n = 3) and 76.6 ± 4.0% in data set [3] (tobramycin 50 µg mL^−1, 2 h, n = 4).

As for Brain Natriuretic Peptide [hBNP], the “affinity for AmiC” value in the data set with AmiC [4] is on record as “no affinity”.

For C‐type Natriuretic Peptide [hCNP], in the data set with AmiC [4] (microscale thermophoresis, read-out: K D, binding to AmiC), the Kd is 2 ± 0.3 µM.

Regarding polymyxin B, in data set [3] (polymyxin B 4 µg mL^−1, 2 h, n = 5), the biovolume reduction was determined as 70.0 ± 4.3%.

Values taken from publication PMC8895129, “Pseudomonas aeruginosa Biofilm Dispersion by the Human Atrial Natriuretic Peptide” (Advanced Science, 2022).
